Test results taken from patent US4652554A, “Nitro-substituted 1-β-D-arabinofuranosylcytosines” (St. Jude Children's Research Hospital, priority 1982, dated 1987).
pIC50: −log10 of the molar value. Read-outs that look alike come from different tables or passages of the source.

Tests used:
[1] = biological target: Cytidine deaminase (Mus musculus, UniProt P56389); experiment: Substrate specificity of cytidine deaminase (spectrophotometric deamination assay); assay type: biochemical; details: for Relative initial rate of deamination: 2.5×10^-4 M substrate, 1.3 mg enzyme protein, pH 7.0, 37° C., cytidine = 100
Experimental: Thus, mouse kidney acetone powder (3 g. obtained from Sigma Chemical Co., St. Louis, Mo.) was extracted at 55°-60° C. for 5 minutes with phosphate buffer (pH 8.0, 0.05M). The extract was filtered through four layers of guaze bandage, and the remaining colloidal materials were removed by centrifugation at 20,000 g. for 10 minutes. The supernatant was then filtered through a Nalgene filter unit (0.45 μm grid membrane) to give a clear yellowish filtrate that was adjusted to 40% saturation by the addition of solid ammonium sulfate (24 g/100 ml. of filtrate) with stirring at room temperature, and stirring was continued for 30 minutes. After removal of the precipitate by centrifugation (20,000 g. for 30 minutes), the active supernatant was adjusted to 70% saturation by further addition of ammonium sulfate (24 g/100 ml of supernatant). The resulting precipitate, recovered by centrifugation (20,000 g. for 30 minutes), was dissolved in 4 ml. of phosphate buffer (pH 7.0, 0.05M) and dialyzed twice against 2 liters of the same buffer.
Protein content was determined by Bio-Rad Protein Assay. […] All reaction mixtures contained 2.5×10^-4 M of substrate and 1.3 mg of enzyme protein in a final volume of 1.0 ml. of phosphate buffer (pH 7.0, 0.05M).

[2] = system: RPMI-6410 (B-cells); experiment: Cytotoxicity (cell growth inhibition), RPMI-6410; assay type: cell-based; details: Homo sapiens, read-out: IC50 (molar conc. for 50% inhib. of cell growth)
[3] = system: human leukemia cells; experiment: Cytotoxicity to human leukemia cells in culture, summary
Experimental: Experiments were also carried out to determine the growth potential of cultured human lymphoblasts in the presence of nitrara-C in tissue culture.

[4] = system: CCFR-CEM/ara-C (mutant); experiment: Cytotoxicity (cell growth inhibition), ara-C resistant mutant; assay type: cell-based; details: Homo sapiens, read-out: IC50 (molar conc. for 50% inhib. of cell growth)
[5] = system: MOLT-4 (T-cells); experiment: Cytotoxicity (cell growth inhibition), MOLT-4; assay type: cell-based; details: Homo sapiens, read-out: IC50 (molar conc. for 50% inhib. of cell growth)
[6] = system: experimental tumors in animals; details: cited from earlier work
[7] = system: murine leukemia L1210; experiment: In vivo L1210 leukemia cell number in peritoneal cavity 24 h after single i.p. dose; design: species or system murine (B6D2F1/J female mice); details: 720 mg/kg i.p., 24 hours after treatment (day 6)
Experimental: 1-(2-O-Nitro-β-D-arabinofuranosyl)cytosine (nitrara-C) is a powerful anti-neoplastic agent particularly against the leukemias.
B6D2F1 /J female mice weighing ~20 g. were inoculated intraperitoneally with 1×10^5 cells of the murine leukemia, L1210. Five days later, the leukemia cells were washed from the peritoneal cavities of untreated mice, and baseline counts were made. Concomitantly, other groups of mice were treated i.p. with either ara-C.HCl or nitrara-C.HCl. Each drug was administered at a level of 720 mg/kg in a volume of 0.01 ml/gm of mouse weight. Twenty-four hours later, on day 6, cells were washed from the peritoneal cavities of both treated and NaCl-injected mice, and cell numbers were compared.
Five days after the intraperitoneal inoculation of B6D2F1 /J mice with one hundred thousand cells of leukemia L1210, an average of 255 million cells were recovered from the abdominal compartments of untreated mice. Twenty-four hours later, this value had increased by 52 percent for NaCl-injected mice, but had declined by 90 percent for animals that received 720 mg/kg of nitrara-C and 77% for ara-C treated group.

[8] = system: CCRF-CEM (T-cells); experiment: Cytotoxicity (cell growth inhibition), CCRF-CEM; assay type: cell-based; details: Homo sapiens, read-out: IC50 (molar conc. for 50% inhib. of cell growth)
[9] = system: L1210; experiment: Life-span of mice inoculated i.p. with L1210 (3×10^6 cells), treatment started 24 h after implantation; assay type: in vivo, murine (B6D2F1/J female mice); details: for indefinite cures (60 day survivors): 5 mice per group; for extension of lifespan: 2000 mg/kg
Experimental: In a similar further study, B6D2F1 /J female mice were inoculated i.p. with 3×10^6 cells of L1210. Treatment was started 24 hours after tumor implantation. Nitrara-C hydrochloride treatment regimens were as follows:
Injections of 0.9 percent saline were used as a control.
On regimen 1, statistically significant increase in life-span was obtained with dosages higher than 34 mg/kg.

[10] = system: CCRF-CEM cells; experiment: Effect of cytidine deaminase on cytotoxicity for CCRF-CEM cells; details: Homo sapiens, CCRF-CEM
[11] = as above; details: cytidine deaminase
[12] = human leukemia cells in culture

## Nc1ccn([C@H]2C[C@H](O)[C@@H](CO)O2)c(=O)n1 [2'-Deoxycytidine, reference compound]
[1]
  Relative initial rate of deamination: 39

## Nc1ccn([C@@H]2O[C@H](CO)[C@@H](O)[C@@H]2O)c(=O)n1 [Ara-C, 1-β-D-arabinofuranosylcytosine]
[2]; RPMI 6410, 48 h
  pIC50: 7.22
[3]
  dependence of cytotoxicity on phosphorylation (in words): cytotoxicity depends on phosphorylation
[4]; 48 h
  pIC50: 4.00
[5]; MOLT-4, 48 h
  pIC50: 8.00
[6]
  activity in experimental tumors (in words): active in several experimental tumors in animals
[7]
  decline in number of L1210 cells recovered from abdominal compartment: 77%
[8]; CCRF-CEM, 48 h
  pIC50: 7.70

## Cl.Nc1ccn([C@@H]2O[C@H](CO)[C@@H](O)[C@@H]2O[N+](=O)[O-])c(=O)n1 [Nitrara-C hydrochloride, 1-(2-O-Nitro-β-D-arabinofuranosyl)cytosine hydrochloride]
[9]; Mus musculus, L1210, ip, 168 h, regimen 1 (daily for 7 days), read-out: dosages giving statistically significant increase in life-span
  minimal effective dose: > 34 mg/kg
[9]; any of the above regimens at the highest dosages
  toxic deaths: Toxic deaths were not seen
[9]; regimen 1 (daily for 7 days), 208 mg/kg
  extension of life-span: 162%
[9]; regimen 1 (daily for 7 days), 259 mg/kg
  indefinite cures (60 day survivors): 3 survivors
[9]; regimen 1 (daily for 7 days), 346 mg/kg
  indefinite cures (60 day survivors): 1 survivor
[9]; regimen 1 (daily for 7 days), 432 mg/kg
  indefinite cures (60 day survivors): 2 survivors
[9]; regimen 1 (daily for 7 days), 720 mg/kg
  indefinite cures (60 day survivors): 1 survivor
[9]; regimen 2 (day 1 only)
  extension of lifespan: 57%
[9]; regimen 3 (days 1 and 4 only)
  extension of lifespan: 120%
[9]; regimen 4 (days 1, 4 and 7)
  extension of lifespan: 197%

## Nc1ccn([C@@H]2O[C@H](CO)[C@@H](O)[C@@H]2O[N+](=O)[O-])c(=O)n1 [Nitrara-C, 1-(2-O-nitro-β-D-arabinofuranosyl)cytosine]
[2]; RPMI-6410 (B-cells), 48 hours
  pIC50: 5.22
[3]
  dependence of cytotoxicity on phosphorylation (in words): cytotoxicity depends on phosphorylation
[3]; [12]
  activity compared to ara-C (in words): compares favorably to that of ara-C
  cytotoxicity (in words): highly cytotoxic to various human leukemia cells in culture
[4]; CCFR-CEM/ara-C (mutant), deficient in deoxycytidine kinase, 48 hours
  pIC50: 3.00
[10]; read-out: IC50 (molar conc. for 50% inhib. of cell growth), with cytidine deaminase
  pIC50: 6.22
[10]; read-out: IC50 (molar conc. for 50% inhib. of cell growth), without cytidine deaminase
  pIC50: 6.22
[11]
  metabolised: < 1%
[5]; MOLT-4 (T-cells), 48 hours
  pIC50: 6.40
[1]
  deamination by cytidine deaminase (in words): not deaminated by cytidine deaminase
  Relative initial rate of deamination: < 1
[7]
  decline in number of L1210 cells recovered from abdominal compartment: 90%
[8]; CCRF-CEM (T-cells), 48 hours
  pIC50: 6.22
